Experiments:
Puccinia polysora = assay: Field assessment of Puccinia polysora (PUCCPY) in corn; format: in vivo; conditions: EC + Trycol adjuvant
Cercospora zeae-maydis = assay: Field assessment of Cercospora zeae-maydis (CERCZM) in corn; format: in vivo; conditions: EC + Trycol adjuvant
Experimental: Field Assessment of Cercospora zeae-Maydis (CERCZM) in Corn: […] The experimental plots were inoculated with grey leaf spot 24 hr after application. […] Disease severity (percentage of visual diseased foliage on whole plot) was assessed five times during the trial (22-50 days after application, DAA). The disease infection was recorded following EPPO PP1/26 guideline prescriptions. Area under the disease progress curve (AUDPC) was calculated for each plot using the sets of recorded severity data. Relative AUDPC (% control based on AUDPC) was calculated as percent of the nontreated control.

Cercospora beticola = assay: Field assessment of Cercospora beticola (CERCBE) on sugar beet, two trials averaged; format: in vivo
Experimental: Field Assessment of Cercospora beticola (CERCBE) on Sugar Beet: Assessment of compound I of CERCBE on sugar beet was performed in two separate field trials. In the first trial, a fungicidal treatment containing an EC and SC formulations of compound I by itself and in combination with an adjuvant (Phase II, 50% w/w at 0.5% v/v) was sprayed on sugar beet plants ([…] variety) six times during the course of 7 weeks at the 18-39 growth stages of sugar beet. […] In the second trial, a fungicidal treatment containing an EC and SC formulations of compound I by itself and in combination with an adjuvant (Phase II, 50% w/w at 0.5% v/v) was sprayed on sugar beet plants (BEAVA) five times during the course of 4 weeks at the 36-49 growth stages of sugar beet. […] Disease severity was recorded as a percentage of visual diseased foliage on whole plot. Cercospora leaf spot infection was assessed three times at 7, 14 and 21 days after the last application. The disease infection was recorded following EPPO PP 1/1 (4) guideline prescriptions. Area under the disease progress curve (AUDPC) was calculated for each plot using the sets of recorded severity data. Relative AUDPC (% control based on AUDPC) was calculated as percent of the nontreated control and averaged over both field trials.

Pyrenophora teres = assay: Field assessment of Pyrenophora teres (PYRNTE) on barley, Trial 2 (natural infection); format: in vivo; conditions: EC + Trycol; for % Control (AUDPC) of PYRNTE, Trial 2: barley
Experimental: Compound I was applied at a water volume of 200 L/ha under natural infection of Pyrenophora teres. Disease severity was recorded as a percentage of visual diseased foliage on whole plot. Net blotch of barley infection was assessed three times at 7, 14 and 21 days after the last application. The disease infection was recorded following EPPO PP1/26 guideline prescriptions. Area under the disease progress curve (AUDPC) was calculated for each plot using the sets of recorded severity data. Relative AUDPC (% control based on AUDPC) was calculated as percent of the nontreated control.

[1] = tested on: Blumeria graminis f. sp. hordei; assay: Greenhouse assessment of Blumeria graminis f. sp. hordei (ERYSGH) on barley; format: in vivo; conditions: inoculated 1 day post application, barley seedlings
Experimental: Greenhouse Assessment of Blumeria graminis f sp. hordei ([…]) on Barley: In greenhouse studies, technical grades of material were dissolved in acetone, which were then mixed with nine volumes of water containing 100 ppm of Triton X-100. The fungicide formulations were applied onto seedling plants using an automated booth sprayer to run off. All sprayed plants were allowed to dry prior to further handling. Test plants were inoculated with powdery mildew of barley 1-day post application. When disease symptoms were fully expressed on the untreated plants, infection levels were assessed on a scale of 0 to 100 percent disease severity. Percent disease control was calculated using the ratio of disease severity on treated plants relative to untreated plants.

[2] = tested on: peanut (ARHHY, Arachis hypogaea); assay: Yield of peanut in Sclerotium rolfsii field trials; format: in vivo; conditions: 49 DAAD
Cercospora arachidicola = assay: Field assessment of Cercospora arachidicola (MYCOAR) in peanut; format: in vivo; conditions: Table 8, early leaf spot of peanut, AUDPC based
[3] = tested on: Cercosporidium personatum; assay: Field assessment of Cercosporidium personatum (MYCOBE) in peanut; format: in vivo; conditions: Table 9, late leaf spot of peanut, AUDPC based
[4] = tested on: soybean (GLYMX, Glycine max); assay: Yield of soybean in Cercospora sojina field trials; format: in vivo; conditions: harvest at crop maturity
Sclerotium rolfsii = assay: Field assessment of Sclerotium rolfsii (SCLORO) in peanut, percent stem incidence; conditions: 42 DAAD, untreated 41.8
Experimental: Four applications, at two week intervals were made to each trial, starting at growth stage BBCH66 and continuing through BBCH84. The experimental plots were conducted with natural infestation of the pathogen. The treatment was part of an experimental trial designed as a randomized complete block (RCB) with four replications and a plot of approximately 6×40 ft.
Percent stem incidence (percent of stems with any disease, based on 80 stems counted per plot) was assessed at 42 days after application D (42 DAAD).

[5] = 50 g/ha, Agnique BP420 200 mL/ha
[6] = 75 g/ha, Agnique BP420 300 mL/ha
[7] = 100 g/ha, Adsee C80W 80% 250 g/ha
[8] = 100 g/ha, Agnique BP420 400 mL/ha
[9] = 150 g/ha, Agnique BP420 600 mL/ha

## COc1ccnc(C(=O)N[C@@H](C)C(=O)O[C@@H](C)C(c2ccc(F)cc2)c2ccc(F)cc2)c1OC(C)=O [Compound I, (S)-1,1-bis(4-fluorophenyl)propan-2-yl (3-acetoxy-4-methoxypicolinoyl)-L-alaninate]
Puccinia polysora; 50 g ai/ha
  Disease control of PUCCPY, percent control based on AUDPC: C (26-50)
Puccinia polysora; 100 g ai/ha
  Disease control of PUCCPY, percent control based on AUDPC: B (51-75)
Puccinia polysora; 150 g ai/ha
  Disease control of PUCCPY, percent control based on AUDPC: B (51-75)
Cercospora zeae-maydis; 50 g ai/ha
  Disease control of CERCZM, percent control based on AUDPC: B (51-75)
Cercospora zeae-maydis; 100 g ai/ha
  Disease control of CERCZM, percent control based on AUDPC: B (51-75)
Cercospora zeae-maydis; 150 g ai/ha
  Disease control of CERCZM, percent control based on AUDPC: B (51-75)
Cercospora beticola; EC, 75 g ai/ha, no adjuvant
  % Control (AUDPC) of CERCBE: B (51-75)
Cercospora beticola; EC, 75 g ai/ha, with Phase II adjuvant
  % Control (AUDPC) of CERCBE: B (51-75)
Cercospora beticola; EC, 150 g ai/ha, no adjuvant
  % Control (AUDPC) of CERCBE: A (76-100)
Cercospora beticola; SC, 75 g ai/ha, no adjuvant
  % Control (AUDPC) of CERCBE: B (51-75)
Cercospora beticola; SC, 75 g ai/ha, with Phase II adjuvant
  % Control (AUDPC) of CERCBE: B (51-75)
Cercospora beticola; SC, 150 g ai/ha, no adjuvant
  % Control (AUDPC) of CERCBE: A (76-100)
Pyrenophora teres; 50 g ai/ha
  % Control (AUDPC) of PYRNTE, Trial 2: B (51-75)
Pyrenophora teres; 100 g ai/ha
  % Control (AUDPC) of PYRNTE, Trial 2: B (51-75)
Pyrenophora teres; 150 g ai/ha
  % Control (AUDPC) of PYRNTE, Trial 2: B (51-75)
Pyrenophora teres; replicated field trial, 50, 100 and 150 g ai/ha, natural infection
  control of Pyrenophora teres on barley (in words): useful levels of control
[1]; 0.39 ppm
  % Control of ERYSGH (disease severity treated relative to untreated): B (51-75)
[1]; 1.56 ppm
  % Control of ERYSGH (disease severity treated relative to untreated): A (76-100)
[1]; 6.25 ppm
  % Control of ERYSGH (disease severity treated relative to untreated): A (76-100)
[1]; 25 ppm
  % Control of ERYSGH (disease severity treated relative to untreated): A (76-100)
[1]; 100 ppm
  % Control of ERYSGH (disease severity treated relative to untreated): A (76-100)
[2]; [5]
  ARHHY Yield Percent of Untreated: 96.4%
[2]; 50 g/ha, MSO 100 g/ha
  ARHHY Yield Percent of Untreated: 104.9%
[2]; [6]
  ARHHY Yield Percent of Untreated: 113.9%
[2]; 75 g/ha, MSO 150 g/ha
  ARHHY Yield Percent of Untreated: 112.8%
[2]; [7]
  ARHHY Yield Percent of Untreated: 122.0%
[2]; [8]
  ARHHY Yield Percent of Untreated: 118.0%
[2]; 100 g/ha, MSO 200 g/ha
  ARHHY Yield Percent of Untreated: 115.7%
[2]; [9]
  ARHHY Yield Percent of Untreated: 130.0%
[2]; 150 g/ha, MSO 300 g/ha
  ARHHY Yield Percent of Untreated: 131.5%
Cercospora arachidicola; [5]
  Calc Percent Control of MYCOAR: 31.5%
Cercospora arachidicola; 50 g/ha, MSO 100 g/ha
  Calc Percent Control of MYCOAR: 32.0%
Cercospora arachidicola; [6]
  Calc Percent Control of MYCOAR: 35.6%
Cercospora arachidicola; 75 g/ha, MSO 150 g/ha
  Calc Percent Control of MYCOAR: 36.3%
Cercospora arachidicola; [7]
  Calc Percent Control of MYCOAR: 40.3%
Cercospora arachidicola; [8]
  Calc Percent Control of MYCOAR: 44.8%
Cercospora arachidicola; 100 g/ha, MSO 200 g/ha
  Calc Percent Control of MYCOAR: 44.4%
Cercospora arachidicola; [9]
  Calc Percent Control of MYCOAR: 57.7%
Cercospora arachidicola; 150 g/ha, MSO 300 g/ha
  Calc Percent Control of MYCOAR: 52.3%
[3]; [5]
  Calc Percent Control of MYCOBE: 28.5%
[3]; 50 g/ha, MSO 100 g/ha
  Calc Percent Control of MYCOBE: 24.0%
[3]; [6]
  Calc Percent Control of MYCOBE: 30.0%
[3]; 75 g/ha, MSO 150 g/ha
  Calc Percent Control of MYCOBE: 26.8%
[3]; [7]
  Calc Percent Control of MYCOBE: 26.9%
[3]; [8]
  Calc Percent Control of MYCOBE: 36.0%
[3]; 100 g/ha, MSO 200 g/ha
  Calc Percent Control of MYCOBE: 29.0%
[3]; [9]
  Calc Percent Control of MYCOBE: 44.7%
[3]; 150 g/ha, MSO 300 g/ha
  Calc Percent Control of MYCOBE: 38.5%
[4]; [5]
  GLXMA Yield Percent of Untreated: 117.0%
[4]; 50 g/ha, MSO 100 g/ha
  GLXMA Yield Percent of Untreated: 108.0%
[4]; [6]
  GLXMA Yield Percent of Untreated: 119.2%
[4]; 75 g/ha, MSO 150 g/ha
  GLXMA Yield Percent of Untreated: 114.6%
[4]; [7]
  GLXMA Yield Percent of Untreated: 115.3%
[4]; [8]
  GLXMA Yield Percent of Untreated: 117.6%
[4]; 100 g/ha, MSO 200 g/ha
  GLXMA Yield Percent of Untreated: 113.4%
[4]; [9]
  GLXMA Yield Percent of Untreated: 114.8%
[4]; 150 g/ha, MSO 300 g/ha
  GLXMA Yield Percent of Untreated: 112.9%
Sclerotium rolfsii; [5]
  Calc Percent Stem Incidence of SCLORO: 41.6%
Sclerotium rolfsii; 50 g/ha, MSO 100 g/ha
  Calc Percent Stem Incidence of SCLORO: 39.1%
Sclerotium rolfsii; [6]
  Calc Percent Stem Incidence of SCLORO: 33.2%
Sclerotium rolfsii; 75 g/ha, MSO 150 g/ha
  Calc Percent Stem Incidence of SCLORO: 33.0%
Sclerotium rolfsii; [8]
  Calc Percent Stem Incidence of SCLORO: 27.9%
Sclerotium rolfsii; 100 g/ha, MSO 200 g/ha
  Calc Percent Stem Incidence of SCLORO: 28.2%
Sclerotium rolfsii; [9]
  Calc Percent Stem Incidence of SCLORO: 29.6%
Sclerotium rolfsii; 150 g/ha, MSO 300 g/ha
  Calc Percent Stem Incidence of SCLORO: 24.7%

From patent US20200077656A1, “Use of an Acyclic Picolinamide Compound as a Fungicide for Control of Phytopathogenic Fungi in Row Crops” (priority 2017, published 2020)
